Tests used:
[1] = dissolved in DMSO; Belelli et al., 1989; cited from earlier work
[2] = system: GABA receptor complex (36Cl uptake, cerebral cortical synaptoneurosomes); assay: GABA-stimulated 36Cl uptake in rat cerebral cortical synaptoneurosomes; type: biochemical, rat (male Sprague-Dawley)
locomotor activity = assay: Locomotor activity in habituated mice; type: in vivo, mice (male N.I.H. Swiss-Webster)
Protocol: For evaluation of a drug's effects on general activity, mice were first habituated to the open-field apparatus for 15 min. The following day, mice were pretreated with a test drug and placed in the center of the activity chambers. The total distance traveled was measured for 10 min.
The vehicle control data were analyzed across test days using an 1-way analysis of variance (ANOVA). […] The dose-response curves were then analyzed using an 1-way ANOVA, followed by Dunnett's t-test for individual comparisons between doses and control. The open-field and habituated locomotor data were analyzed using ANOVA followed by Dunnett's t-test. […] All data is expressed as the mean±S.E.M.

[3] = system: strychnine-induced convulsions; settings: dissolved in DMSO; Belelli et al., 1989; cited from earlier work
[4] = system: GABA receptor-chloride ionophore complex (GR complex); assay: Dissociation kinetics of [35S]TBPS in rat cerebral cortical membranes; type: binding; settings: alphaxalone 300 nM, 3α-OH-DHP 20 nM
[5] = Na pentobarbital 30 μM, 2 nM [35S]TBPS

In the case of `CC(=O)[C@H]1CC[C@H]2[C@@H]3CC[C@H]4C[C@H](O)CC[C@]4(C)[C@H]3CC[C@]12C` [Example 3α-OH-DHP, 3α-hydroxy-5α-pregnan-20-one], the LD50 [1] is given as over 500 mg/kg, the “enhancement of GABA-stimulated 36Cl uptake above GABA alone” value ([2]; 3α-OH-DHP 500 nM alone, GABA 25 μM, FIG. 4) is given as 60% and the “% enhancement of basal 36Cl uptake” value ([2]; GABA (25 μM) + 3α-OH-DHP (500 nM)) is given as 194 ± 8%. For the same compound, the “effect on basal 36Cl uptake” value ([2]; steroid alone, no GABA) was “no effect”, the “total distance traveled, acclimated mice” value (locomotor activity; 3α-OH-DHP 20 mg/kg, controls 2061.2±157.7 cm, p<0.01) was 5694.7±608.4 cm and the “effect on locomotor activity” value (locomotor activity; acclimated mice) was “significant increase in locomotor activity”. For the same compound, the “ED50 STR (strychnine)” value [3] was over 300 mg/kg, the “Total percentage of specific sites, rapid (R)” value ([4]; Na pentobarbital 30 μM) was 35 ± 3% and the “Total percentage of specific sites, slow (S)” value ([4]; Na pentobarbital 30 μM) was 68 ± 3%. The “K-1, slowly dissociating component (S)” value [4, 5] was 0.011 ± 0.002 min⁻¹, the “T1/2, rapidly dissociating component (R)” value [4, 5] was 6.4 ± 1 min and the “T1/2, slowly dissociating component (S)” value [4, 5] was 76 ± 11 min. For the same compound, the “biphasic dissociation mechanism of [35S]TBPS” value ([4]; pentobarbital 30 μM, FIGS. 2A, 2B) was “absent”.

From US5232917A, “Methods, compositions, and compounds for allosteric modulation of the GABA receptor by members of the androstane and pregnane series” (priority 1991, dated 1993)
